Laboratory results: patent US10982100B2, “Slippery liquid-infused porous surfaces and biological applications thereof” (President and Fellows of Harvard College, priority 2011, dated 2021)
Read-outs that look alike come from different tables or passages of the source.

How the values were obtained:
[1] = Contact angles of various liquids on flat solids; format: physicochemical; design: unit not given here
Method: The behavior of liquids on surfaces is described by an equilibrium contact angle. An equilibrium contact angle, θ, is the angle at which a liquid/vapor interface meets a solid surface, which is determined by the interactions across the three interfaces, e.g., solid/liquid/vapor. […] The upper limit is known as the apparent advancing contact angle (θA), whereas the lower limit is referred as the apparent receding contact angle (θR). The difference between these values is known as contact angle hysteresis (i.e., Δθ=θA−θR, where θA≥θ≥θR), which characterizes the liquid repellency of a surface. Conventionally, equilibrium contact angle can be roughly estimated by the average of the advancing and receding angles (i.e., θ=(θA+θR)/2), or by a static contact angle, θstatic (i.e., θ=θstatic).
In practice, contact angle measurement can be performed by a number of different well-established techniques, such as the sessile drop method and the Wilhelmy method. In particular, the sessile drop method is among the most popular technique for contact angle measurement. In this technique, a liquid droplet is deposited on a targeted solid surface, where the liquid profile is captured by an optical system of a goniometer and geometrically fitted to obtain the contact angle. The contact angle measured from a static liquid droplet deposited on the surface is known as the static contact angle, θstatic. Using the same system, advancing contact angle, θA, can be measured while the volume of the drop is increasing until the wetting line starts to advance. Receding contact angle, θR, can be measured by decreasing the volume of the drop and determining the contact angle just before the wetting line recedes. Alternatively, the advancing and the receding angles of the liquid drop can also be determined by gradually tilting the solid surface until the liquid drop starts to move.

[2] = Surface tension of polar and non-polar liquids; format: physicochemical
Source text: Fluid-fluid interfacial tension can be measured by many well-established techniques, such as the Wilhelmy plate method, the Du Noüy ring method, and the pendant drop method (e.g., see Drelich et al., in Encyclopedia of Surface and Colloid Science, pp. 3152-3166, Marcel Dekker Inc, 2002, the contents of which is incorporated by reference herein in its entirety). Among all of the techniques, the pendant drop method is among the most popular and versatile technique, which can be easily extended to a two-liquid system. The pendant drop method measures the shape of a fluid-fluid interface and quantifies the shape distortion due to the competition between the fluid-fluid interfacial tension and gravity. In practice, a drop of denser fluid (e.g., Object A) is suspended by a syringe needle in medium X (i.e., air/water/the lubricating fluid). Owing to the influence of gravity, the denser liquid droplet will be deformed as the liquid volume increases. The shape profile of the liquid droplet is captured by an optical system and subsequently analyzed by a computer software when the liquid volume is increased to the maximum possible size (i.e., before the liquid drop is detached from the syringe needle). The interfacial tension of the fluid-fluid interface, γ, can then be deduced from the formula, γ=ΔρgD^2/H, where Δρ is the density difference between the two immiscible fluids, g is gravity, D is equatorial diameter of the liquid droplet, and H is drop shape dependent parameters which is a function of the shape profile of the droplet.

[3] = Leaching of infiltrated oil in a microfluidic system under water flow; format: physicochemical
Method: Experiments were conducted to determine whether fluid from SLIPS leach into the surrounding biological fluid. A nanostructured post array surface (2 μm tall posts, 300 nm diameter, 0.9 μm spacing) with infiltrated perfluorinated oil (Fluorinert FC-70) was integrated into a microfluidic system. Deionized water flowed into the channel at a rate of 12 mL/min (i.e., 720 mL/hr) for 5 minutes. […] The slipperiness of the surface was examined by putting a droplet of decane on the surface. If decane applied to the surface maintains its mobility on the surface, then the lubricants remain attached on the structured surface. However, if decane remains pinned on the surface, the lubricant layer has not been maintained. Leaching can also be monitored by extracting fluid that has passed over SLIPS into a fluorinated solvent followed by followed by chromatography and mass spectrometry and 19F-NMR.
Defining maximum leaching of the infiltrated fluid as the ratio between the total amounts of the perfluorinated oil infiltrated the surface and the volume of water processed in the microfluidic system, the maximum leaching was <0.2%. Because perfluorocarbons are already approved by the Food and Drug Administration as blood substitutes, leaching of this amount of oil is expected to be harmless. […]

P. aeruginosa = conditions: 1% and 0.1% concentrations; 3, 6, 9, and 30 hours; 550 nm
[4] = test system: Pseudomonas aeruginosa (PA-14); assay: Toxicity screening of lubricating fluids by CFU quantification; conditions: 1% versus 0.01% of product in tryptone broth, 37° C. overnight, orbital shaker
Method: (§1) The toxicity screening assay was based on adding 1% and 0.01% of each commercial product to 10 mL aliquots of tryptone broth, which were inoculated with 1% initial seeding concentration of Pseudomonas aeruginosa (PA-14) preculture and incubated at 37° C. overnight in an orbital shaker. The shaken culture was serially diluted, plated, and incubated for colony forming unit (CFU) quantification.

[5] = test system: Pseudomonas aeruginosa (PA-14)
Method: as §1

[6] = flat solid S. (silanized epoxy)

SMILES	Measured contact angle θadv ([1]; flat solid Epoxy)	Measured contact angle θrec ([1]; flat solid Epoxy)	Measured contact angle θstatic ([1]; flat solid Epoxy)	Measured contact angle θadv [1, 6]	Measured contact angle θrec [1, 6]	Measured contact angle θstatic [1, 6]	Surface Tension [2]	retention of infiltrated oil on nanostructured surface ([3]; deionized water 12 mL/min for 5 minutes, nanostructured post array)	maximum leaching ([3]; ratio of total infiltrated oil to volume of water processed)	bacterial growth (optical densities) compared to control culture (P. aeruginosa)	toxicity screening, CFU [4]	toxicity screening, CFU [5]
FC(F)(F)C(F)(F)C(F)(F)C(F)(F)C(F)(F)N(C(F)(F)C(F)(F)C(F)(F)C(F)(F)C(F)(F)F)C(F)(F)C(F)(F)C(F)(F)C(F)(F)C(F)(F)F [FC-70, perfluoro-tripentylamine]	35.1 ± 0.6	26.7 ± 1.4	33.5 ± 1.1	23.7 ± 4.1	0.0 ± 0.0	14.1 ± 0.8	17.1 ± 0.3 mN/m	remained intact	< 0.2%	statistically indistinguishable bacterial growth	Significantly reduced CFU	
FC1(F)C(F)(F)C(F)(F)C2(F)C(F)(F)C(F)(F)C(F)(F)C(F)(F)C2(F)C1(F)F (centres unmarked) [Perfluorodecalin]										statistically indistinguishable bacterial growth		Significantly reduced CFU
O=CCCCC=O [glutaraldehyde, reference compound]										massive toxicity		
